Measurements taken from publication PMC6941357, “An in vitro toolbox to accelerate anti-malarial drug discovery and development” (Malaria Journal, 2020).
Converted amounts (≈) assume the structure as drawn. “And” between values parts separate entries of the source, which are not always exact repeats. Equal entries are not always repeated. Where two headings read alike, the source gives them in different places.

What was measured:
[1] = Plasma protein binding via rapid equilibrium dialysis (RED), 10% plasma; assay type: in vitro ADME, human; settings: human, 10% pooled plasma (diluted 1:10), pH 7.4, RED, 10% plasma corrected for dilution, 6 h dialysis
Protocol: (§1) Pooled human plasma (n = 3–4 donors) was obtained by centrifugation of blood (collected by the Australian Red Cross Blood Service, Melbourne, Australia or the Volunteer Blood Donor Registry, Clinical Translation Centre, Walter & Eliza Hall Institute of Medical Research, Parkville, Australia), or sourcing pooled plasma directly from commercial sources (Innovative Research Inc, MI) and stored frozen at − 80 °C.
Plasma was diluted 1:10 with pH 7.4 phosphate buffer (prepared by mixing 0.1 M sodium dihydrogen phosphate and 0.1 M disodium hydrogen phosphate (both containing 0.04 M NaCl) to pH 7.4) and spiked with compound to achieve a total measured concentration of ~ 1000–3000 ng/mL. Diluted plasma was vortex mixed briefly and aliquots (n = 3–4) were transferred to RED (Thermo Fisher Scientific, Waltham, MA) units that were placed at 37 °C under ambient atmosphere on a plate shaker. […] At the end of the dialysis period, samples were removed from both the donor and dialysate chambers of the RED units. […] Fraction unbound values were calculated for each individual RED unit and the mean and SD calculated for n = 3–4 replicates.
Briefly, the RED device was exposed for two 30 min periods and one overnight period to fresh solutions of compound prepared in pH 7.4 buffer at approximately 10% of the total dialysis concentration. Following the preincubations, solutions were removed from the RED device and discarded. […] Samples were removed and analysed as described above.
For binding assessments using 10% plasma, the unbound fraction (fu) in neat plasma was calculated using the average values for Ctotal and Cunbound and Eq.

Caco-2 cell monolayers [2] = settings: cited from earlier work
[3] = Plasma protein binding via ultracentrifugation (UC); assay type: in vitro ADME, human; settings: human, neat pooled plasma, pH 7.4; ultracentrifugation, neat plasma; read-out: Fraction unbound, human plasma
Protocol: as §1
(§2) An ultracentrifugation method adapted from a previous publication was initially used to assess plasma protein binding and binding in the other media. […] Additional ultracentrifuge tubes containing spiked matrix were maintained at 37 °C, 5% or 10% CO2 or normal atmosphere conditions, with aliquots being taken within 0.5 h of the start and at the end of ultracentrifugation to serve as controls for the assessment of stability and to obtain a measure of the total concentration (Ctotal). Following ultracentrifugation, the pH was checked and an aliquot of protein-free supernate was taken from each ultracentrifuge tube for determination of the unbound concentration (Cunbound).
(§3) Total matrix and protein free samples were analysed using a matrix matching approach whereby each sample was mixed in a 1:1 ratio with the opposite blank medium (i.e. blank total matrix or blank protein free buffer). For example, plasma samples were mixed with blank pH 7.4 buffer whereas plasma supernatant samples were mixed with blank plasma. Each of the sample sets were then assayed against a common calibration curve prepared in a 1:1 mixture of total matrix and protein free pH 7.4 buffer. […] The standard deviation for fu was calculated using the propagation of errors approach as described previously. The potential for compound degradation was assessed by comparing the average value for Ctotal at the start and end of the experiment.

[4] = Octanol/pH 7.4 buffer partition coefficient, shake flask; settings: for logD: pH 7.4
Protocol: Partition coefficients between octanol and pH 7.4 buffer were measured using a shake flask method. A stock solution of test compound in octanol was prepared at a concentration between 3 and 30 mg/mL based on the expected partition coefficient value. This stock solution was then diluted 3- and 10-fold with octanol and used to prepare the octanol phase for the partitioning experiments. Two different dilutions were used to confirm that there were no saturation effects. Phosphate buffered saline was prepared by combining 67 mM disodium hydrogen orthophosphate and sodium dihydrogen orthophosphate (both prepared in 43 mM NaCl) to a final pH of 7.4.
Partitioning experiments were conducted by mixing equal volumes of the octanol (containing test compound) and aqueous phases and placing on a vibrating plate mixer in an incubator at 37 °C. […] An aliquot of the aqueous phase was carefully removed and centrifuged again to ensure no contamination from the octanol phase before sampling in duplicate and diluting with aqueous methanol for analysis. Diluted samples were analysed by LC–MS along with calibration standards (Additional file 1: Table S2) and partition coefficients were calculated from the ratio of the mean octanol to buffer concentration after accounting for the dilution factors. The partitioning results for the two time points were used to confirm that the partitioning experiment had reached equilibrium.

human plasma = settings: methods UF, ED, EP or not described per compound, ref [6]–[22] of Additional file 1; cited from earlier work
[5] = biological target: T1, Albumax medium (lipid rich bovine serum albumin) (Bos taurus, UniProt P02769); test: Binding in Albumax medium via ultracentrifugation; assay type: in vitro ADME; settings: bovine, Albumax medium, pH 7.4
T1 construct: purchased Gibco, Thermo Fisher Scientific
T1 sequence (P02769 25-607): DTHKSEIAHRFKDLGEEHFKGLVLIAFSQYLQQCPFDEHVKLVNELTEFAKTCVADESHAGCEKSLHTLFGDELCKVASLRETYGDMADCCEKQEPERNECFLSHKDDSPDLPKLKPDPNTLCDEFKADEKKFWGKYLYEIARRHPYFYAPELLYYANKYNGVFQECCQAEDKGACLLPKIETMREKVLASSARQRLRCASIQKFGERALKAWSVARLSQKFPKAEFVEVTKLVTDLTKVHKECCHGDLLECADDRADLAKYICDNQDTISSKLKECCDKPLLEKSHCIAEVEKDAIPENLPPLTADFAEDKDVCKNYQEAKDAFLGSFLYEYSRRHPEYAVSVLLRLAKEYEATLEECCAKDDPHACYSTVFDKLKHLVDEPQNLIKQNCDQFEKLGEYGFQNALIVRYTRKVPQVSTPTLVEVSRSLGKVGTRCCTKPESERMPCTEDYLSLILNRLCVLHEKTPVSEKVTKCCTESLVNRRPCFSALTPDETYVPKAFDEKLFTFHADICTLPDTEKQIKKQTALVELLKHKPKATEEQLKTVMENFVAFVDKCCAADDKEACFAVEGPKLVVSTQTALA
Protocol: as §2, §3

[6] = Ionization constants by potentiometric titration; assay type: physicochemical; settings: basic pKa (B), mean ± SD, n = 3 titrations
Protocol: The autotitrator was controlled by Tiamo software (Version 1.3). pH measurements were conducted using a Metrohm LL Micro glass electrode which was calibrated on the day of use with calibration standards at pH 2, 4, 7 and 10. All reagents were standardized (directly or indirectly) against potassium hydrogen phthalate (Sigma-Aldrich, A.C.S. Acidimetric Standard). Titrant solutions were protected from carbon dioxide absorption by flushing with nitrogen before sealing or by the incorporation of a drying tube filled with self-indicating soda lime into the titration reaction vessel set-up.
Aliquots were introduced directly into the titration vessel and diluted 1:10 with water (typical final compound concentration of 0.5 mM).

CYP3A4 = CYP3A4 (Homo sapiens, UniProt P08684); test: Cytochrome P450 inhibition in human liver microsomes; settings: highest concentration tested 20 µM
Sequence of CYP3A4 (P08684 whole entry, canonical isoform): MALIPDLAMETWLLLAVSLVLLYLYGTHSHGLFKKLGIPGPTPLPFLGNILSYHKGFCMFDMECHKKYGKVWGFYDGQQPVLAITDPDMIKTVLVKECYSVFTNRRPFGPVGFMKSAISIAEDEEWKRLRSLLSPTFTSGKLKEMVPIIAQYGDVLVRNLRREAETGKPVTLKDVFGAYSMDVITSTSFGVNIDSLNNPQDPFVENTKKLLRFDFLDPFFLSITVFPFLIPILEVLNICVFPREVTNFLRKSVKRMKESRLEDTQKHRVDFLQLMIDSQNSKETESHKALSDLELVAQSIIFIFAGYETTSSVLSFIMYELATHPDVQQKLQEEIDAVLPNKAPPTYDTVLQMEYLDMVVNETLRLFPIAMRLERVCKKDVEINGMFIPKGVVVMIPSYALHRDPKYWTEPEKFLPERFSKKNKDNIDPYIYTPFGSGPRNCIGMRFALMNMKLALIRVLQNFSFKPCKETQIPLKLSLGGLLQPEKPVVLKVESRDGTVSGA
Protocol: The CYP inhibition assay was based on a previous publication with minor modifications. The method uses human liver microsomes and a substrate-specific interaction approach which relies on the formation of a metabolite that is mediated by a specific CYP isoform. The specific CYP-mediated metabolic pathways, substrates, substrate Km values, positive control inhibitors and specific incubation conditions are shown in Additional file 1: Table S4. […] Samples were quenched by the addition of ice-cold acetonitrile containing diazepam as the analytical internal standard. Concentrations of the substrate-specific metabolites in quenched samples were determined by LC–MS (Additional file 1: Table S5) relative to calibration standards prepared in quenched microsomal matrix.
The inhibitory effect of each test compound and positive control inhibitor was based on the reduction in the formation of the specific CYP-mediated metabolite (represented as percent inhibition of enzyme activity) relative to metabolite formation in the absence of inhibitor (i.e. control for maximal enzyme activity). […] The Km was determined under the same incubation conditions by measuring the rate of metabolite formation (pmol/min/mg protein) as a function of substrate concentration (Additional file 1: Table S4).

[7] = Binding to human liver microsomes via ultracentrifugation; assay type: in vitro ADME; settings: human, liver microsomes, pH 7.4, 0.4 mg/mL protein, read-out: Fraction unbound, HLM
Protocol: A suspension of human liver microsomes (HLM, XenoTech LLC, Lenexa, KS, USA) was prepared in 0.1 M phosphate buffer (pH 7.4) at a protein concentration of 0.4 mg/mL immediately prior to the experiment.
as §2, §3

human liver microsomes [8] = test: in vitro; settings: human, 1 µM, pH 7.4
Protocol: (§4) The metabolic stability assay was adapted from a previously published method. […] Reactions were quenched at 2, 5, 15, 30 and 60 min by the addition of acetonitrile containing 150 ng/mL diazepam as internal standard. Control samples (containing no cofactor) were included (quenched at 2, 30 and 60 min) to monitor degradation in the absence of cofactor. Concentrations were determined by LC–MS (Additional file 1: Table S2) by comparison to the response for a single point calibration standard prepared in quenched microsomal matrix.
(§5) Test compound concentration versus time data were fit using an exponential decay function to determine the first-order rate constant for substrate depletion. Where deviation from first-order kinetics was evident, only the initial linear portion of the logarithmic profile was utilized to determine the initial degradation rate constant (k, min^−1). Each substrate depletion rate constant was then used to calculate the in vitro intrinsic clearance value (CLint, in vitro, µL/min/mg protein) using Eq.
(§6) Unbound in vitro CLint values were obtained by dividing the measured CLint by the measured fu in microsomes.

in vitro = settings: human, microsomes
Protocol: as §4, §5, §6

physchem = settings: for An (absorption number): Peff × tres/R, minimum 1; for Predicted human Peff: from Caco-2 Papp via calibration plot
From the text: Predicted Peff values were obtained from a calibration plot of literature Peff values vs measured Caco-2 Papp using either buffer or plasma as the transport medium (see Results section).

Caco-2 cell monolayers [9] = test: Bidirectional permeability across Caco-2 cell monolayers; settings: matrix: human plasma, corrected for fu
Protocol: (§7) Bidirectional permeability was assessed across Caco-2 cell monolayers as described previously. Briefly, permeability experiments were performed using either aqueous transport buffer (pH 7.4 Hanks balanced salt solution containing 20 mM HEPES) or human plasma (Australian Red Cross Blood Service) in both the apical and basolateral chambers. […] The final DMSO concentration in the donor solution was 0.1% v/v.
(§8) Samples from the donor chamber were taken at the start and end of the experiment. […] Donor and acceptor samples were stored frozen at − 80 °C until analysis by LC–MS (Additional file 1: Table S2) with sample preparation as described previously. The mass balance and apparent permeability coefficient (Papp) were calculated as previously described.
(§9) Where human plasma was used as the transport medium, Papp values were calculated as shown above, with correction for the fraction unbound (fu) in the donor solution Cdonorinitial×fu with fu determined at a similar concentration to that used in the transport experiment. The apparent flux of lucifer yellow was based on an endpoint measurement assuming no lag time. The efflux ratio was calculated as the ratio of the mean B–A to A–B Papp values.

[10] = Solubility in biorelevant media
Protocol: Solubility of each active pharmaceutical ingredient was evaluated at 37 °C in pH 7.4 phosphate buffered saline (prepared as described for the partitioning experiments), fasted (FaSSIF-V2) and fed (FeSSIF-V2) state simulated intestinal fluids and fasted state simulated gastric fluid (FaSSGF) as described by Jantratid et al.. […] Samples were vortexed and placed in a 37 °C incubator on an orbital mixer (IKA® VXR basic Vibrax® orbital mixer) set at 600 rpm. Sampling times were 1 h for FaSSGF or 5–6 h for FaSSIF-V2, FeSSIF-V2, and PBS. These times were used to reflect the maximal likely residence times within the stomach and small intestine, respectively. Sampling was carried out by centrifuging each sample at 10,000 rpm for 3 min, transferring 300 µL aliquots into fresh Eppendorf tubes and centrifuging these tubes again at 10,000 rpm for 3 min. Triplicate aliquots of the supernatant were then removed and diluted 1:2 in 50% aqueous methanol and then again in 50% aqueous acetonitrile to be within the analytical concentration range. Samples were analysed by LC–MS along with calibration standards (Additional file 1: Table S2).

[11] = Bidirectional permeability across Caco-2 cell monolayers; settings: human
Protocol: as §7, §8, §9

[12] = human; cited from earlier work
human liver microsomes [13] = settings: microsomal protein 0.5 mg/mL; ref [23]–[28] of Additional file 1; cited from earlier work
[14] = matrix: human plasma, corrected for fu

CCN(CC)Cc1cc(Nc2ccnc3cc(Cl)ccc23)ccc1O [Amodiaquine]
fraction unbound at 6 h [1]: 0.086
Literature ER (Caco-2 cell monolayers [2]; Caco-2, ref [33], [35] of Additional file 1): 1.3
Literature Papp (Caco-2 cell monolayers [2]; Caco-2 A-B, ref [33]–[35] of Additional file 1): 16.0 ± 1.1 10-6 cm/sec
A–B Papp (Caco-2 cell monolayers [2]; [14]): 90 ± 8.3 10^−6 cm/s
B–A Papp (Caco-2 cell monolayers [2]; [14]): 63 ± 9.6 10^−6 cm/s
fraction unbound at […] [3]: 0.089 ± 0.008
logD ([4]; octanol/pH 7.4 buffer): 2.95
Literature fu (human plasma): < 0.1
fraction unbound at […], 500 ng/mL [5]: 0.67 ± 0.033
pKa ([6]; aqueous solution (DMSO stock diluted 1:10 with water), read-out: Measured pKa): 7 ± 0.02
IC50 (CYP3A4; CYP3A4 (midaz) IC50, human liver microsomes, CYP3A4 (midaz)): > 20 µM
IC50 (CYP3A4; CYP3A4 (test) IC50, human liver microsomes, CYP3A4 (test)): > 20 µM
fraction unbound at […] [7]: 0.91 ± 0.094
Unbound CLint (human liver microsomes [8]): 339 µL/min/mg
microsomal CLint at 1 µM (in vitro; pH 7.4, HLM CLint): 308 µL/min/mg

CC1(C)CC(O)(COc2ccc(C3CCC4(CC3)OOC3(O4)C4CC5CC(C4)CC3C5)cc2)CC(C)(C)N1 (stereo not drawn) [MMV052]
SLAD (physchem): 7580 mg
An (absorption number) (physchem): 13
Ssi (estimated solubility in the small intestine) (physchem; based on measured FaSSIF solubility): 1140 µg/mL
Predicted human Peff (physchem): 11 10^−4 cm/s
A–B Papp (Caco-2 cell monolayers [9]): > 300 10^−6 cm/s
B–A Papp (Caco-2 cell monolayers [9]): > 300 10^−6 cm/s
Measured Log D7.4 ([4]; octanol/pH 7.4 buffer, shake flask, 37 °C): 5.40
Measured pKa [6]: 8.3 ± 0.06 (B)
Solubility FaSSGF (1 h) ([10]; 37 °C): 13.0 µg/mL and 24.7 µM
Solubility FaSSIF-V2 (5–6 h) ([10]; 37 °C): 1140 µg/mL and 2170 µM
Solubility FeSSIF-V2 (5–6 h) ([10]; 37 °C): > 2000 µg/mL and > 3800 µM
Solubility PBS7.4 (5–6 h) ([10]; 37 °C): 49.6 µg/mL and 94.3 µM

c1cc([C@H]2CC[C@]3(CC2)OO[C@]2(O3)C3CC4CC(C3)CC2C4)ccc1OCCN1CCOCC1 [OZ439]
solubility (physchem; FaSSIF): 40.6 µg/mL (≈ 86.5 µM)
An (absorption number) (physchem): 13
SLAD (physchem; Ssi × V (500 mL) × Mp): 270 mg
Predicted human Peff (physchem): 11 10^−4 cm/s
Papp B→A ([11]; Caco-2): > 300 ×10⁻⁶ cm/s
Papp A→B ([11]; Caco-2, A–B Papp, matrix: human plasma, corrected for fu): > 300 ×10⁻⁶ cm/s
logD ([4]; octanol/pH 7.4 phosphate buffered saline): > 5
FaSSGF solubility ([10]; FaSSGF): 79 µg/mL
solubility at 1 h ([10]; FaSSGF, 37 °C, fassgf or other biorelevant, thermodynamic from solid): 79 µg/mL and 168 µM
FaSSIF solubility ([10]; FaSSIF): 40.6 µg/mL
solubility ([10]; FaSSIF-V2, 37 °C, fassif, thermodynamic from solid): 40.6 µg/mL and 87 µM
solubility ([10]; FeSSIF-V2, 37 °C, fessif, thermodynamic from solid): 526 µg/mL and 1120 µM
solubility ([10]; phosphate buffered saline pH 7.4, 37 °C, pH 7.4, aqueous buffer, thermodynamic from solid): 0.085 µg/mL and 0.181 µM
Food effect [12]: yes
V/F [12]: 1570 L

Cc1ncc2n1-c1ccc(Cl)cc1C(c1ccccc1F)=NC2 [midazolam]
Literature CLint (human liver microsomes [13]): 353 µL/min/mg and 178 µL/min/mg and 287 µL/min/mg
microsomal CLint at 1 µM (in vitro; pH 7.4, Mean CLint, control compounds, mean (S.D.)): 272 µL/min/mg
microsomal CLint at 1 µM (in vitro; pH 7.4, Range HLM CLint, control compounds, 6–21 independent measurements, 0.4 mg/mL): 240 to 300 µL/min/mg
